Reference: US5610160A, “Topical 5-fluorouracil prodrug composition and method” (priority 1994, dated 1997)
≈ marks a conversion by molar mass, not a printed value. Where two headings read alike, the source gives them in different places.

How the values were obtained:
[1] = Solubility of prodrug in isopropyl myristate (IPM); details: for CIPM, equivalent mg of 5FU/ml: IPM, 23 ± 1° C., value in parentheses; for solubility: isopropyl myristate, organic solvent or mixture
Description: The results from the determination of the physicochemical properties are recorded in the tables as CIPM (the saturated solubility of the prodrug in the isopropyl myristate (IPM) vehicle/formulation in which the prodrug was applied to the mouse skins), K (the partition coefficients of the prodrug between IPM and a pH 4.0 acetate buffer) and Cw (the solubility of the prodrug in pH 4.0 acetate buffer calculated from the partition coefficient and the IPM solubility).

not told = details: 22 °C; cited from earlier work
[2] = 37° C., 80% human plasma, cited from earlier work
[3] = Partition coefficient between IPM and pH 4.0 acetate buffer; format: physicochemical; details: 23 ± 1° C.
Source text: ^a Partition coefficient between IPM and pH 4.0 acetate buffer at 23

[4] = shake-flask, brief shaking, IPM phase analyzed immediately; details: 23 ± 1 °C
[5] = 22° C., cited from earlier work
[6] = 37° C., 0.05 M phosphate buffer pH 7.4, cited from earlier work
[7] = Diffusion cell experiments: delivery of 5-FU through hairless mouse skin; format: in vitro ADME; details: for Jj, flux of theophylline through the skin after application of the prodrug/formulation (relative damage): theophylline from suspension in PG; for Ji, flux of 5-FU through the skin: from suspensions of prodrugs in IPM, hairless mouse skin; for Cs, amount of 5-FU in the skin: leached from hairless mouse skin in 24 hours subsequent to application of prodrug in vehicle for 48 hours
Description: The diffusion cell experiments were conducted as described by Sloan et al in J. Invest.
^b Flux in mg/cm^2 hour of 5FU from suspensions of prodrugs in
^c Amount of 5FU in mg leached from hairless mouse skin in 24 hours
subsequent to application of prodrug in vehicle for 48 hours.
^d Flux in mg/cm^2 hour of theophylline from suspension in PG.

[8] = 22° C., cited from earlier work; remark: listed apart in the source
[9] = Int. J. Pharm. 21, 349, Buur et al (1984)
[10] = Buur et al (1986), compound 11 from Buur et al (1987)
[11] = J. Pharm. Sci. 75, 522, Buur et al (1986), compound 11 from Int. J. Pharm. 36, 41 (1987)

CCC(=O)n1c(=O)[nH]cc(F)c1=O [Compound 14]
CIPM, equivalent mg of 5FU/ml [1]: 1.83 equivalent mg of 5FU/ml | solubility [1]: 2620 µg/mL (≈ 14.1 mM) | log partition octanol / pH 4.0 acetate buffer (not told): 0.19 log10 concentration ratio | Half-life, 80% Plasma ([2]; Buur et al (1984)): 20 min | K, partition coefficient between IPM and pH 4.0 acetate buffer [3]: 0.088 | log partition isopropyl myristate / pH 4.0 acetate buffer [4]: 0.088 concentration ratio | Cw, solubility at pH 4.0 acetate buffer ([5]; Buur et al (1984)): 35.3 mg/ml | Half-life, Buffer ([6]; Buur et al (1984)): 50 min | Jj, flux of theophylline through the skin after application of the prodrug/formulation (relative damage) [7]: 0.318 mg/cm^2 hour | log K, octanol/pH 4.0 acetate buffer [8, 9]: 0.19

CCCCCCCC(=O)n1cc(F)c(=O)[nH]c1=O [Compound 6]
CIPM, equivalent mg of 5FU/ml [1]: 14.4 equivalent mg of 5FU/ml | solubility [1]: 28400 µg/mL (≈ 111 mM) | Ji, flux of 5-FU through the skin [7]: 0.078 mg/cm^2 hour | Cs, amount of 5-FU in the skin [7]: 1.58 mg | Jj, flux of theophylline through the skin after application of the prodrug/formulation (relative damage) [7]: 0.129 mg/cm^2 hour

COC(=O)n1cc(F)c(=O)[nH]c1=O [Compound 7]
solubility [1]: 400 µg/mL (≈ 2.13 mM) | log partition octanol / pH 4.0 acetate buffer (not told): -0.68 log10 concentration ratio | K, partition coefficient between IPM and pH 4.0 acetate buffer [3]: 0.026 | log partition isopropyl myristate / pH 4.0 acetate buffer [4]: 0.026 concentration ratio | Cw, solubility at pH 4.0 acetate buffer [5, 10]: 23.3 mg/ml | Half-life, Buffer [6, 10]: 190 min | Ji, flux of 5-FU through the skin [7]: 0.343 mg/cm^2 hour | Cs, amount of 5-FU in the skin [7]: 1.08 mg | Jj, flux of theophylline through the skin after application of the prodrug/formulation (relative damage) [7]: 0.337 mg/cm^2 hour | log K, octanol/pH 4.0 acetate buffer [8, 11]: -0.68

CCCCC(=O)n1c(=O)[nH]cc(F)c1=O [Compound 16]
K, partition coefficient between IPM and pH 4.0 acetate buffer [3]: 1.65 | log partition isopropyl myristate / pH 4.0 acetate buffer [4]: 1.65 concentration ratio | Ji, flux of 5-FU through the skin [7]: 0.071 mg/cm^2 hour | Cs, amount of 5-FU in the skin [7]: 0.38 mg

CCOC(=O)n1cc(F)c(=O)[nH]c1=O [Compound 8]
CIPM, equivalent mg of 5FU/ml [1]: 1.70 equivalent mg of 5FU/ml | solubility [1]: 2640 µg/mL (≈ 13.1 mM) | log partition octanol / pH 4.0 acetate buffer (not told): -0.17 log10 concentration ratio | Half-life, 80% Plasma [2, 10]: 2.1 min | K, partition coefficient between IPM and pH 4.0 acetate buffer [3]: 0.0757 | log partition isopropyl myristate / pH 4.0 acetate buffer [4]: 0.0757 concentration ratio | Cw, solubility at pH 4.0 acetate buffer [5, 10]: 6.9 mg/ml | Half-life, Buffer [6, 10]: 550 min | Ji, flux of 5-FU through the skin [7]: 0.770 mg/cm^2 hour | Cs, amount of 5-FU in the skin [7]: 2.38 mg | Jj, flux of theophylline through the skin after application of the prodrug/formulation (relative damage) [7]: 0.357 mg/cm^2 hour | log K, octanol/pH 4.0 acetate buffer [8, 11]: -0.17

CCCCC(=O)n1cc(F)c(=O)[nH]c1=O [Compound 4]
solubility [1]: 8390 µg/mL (≈ 39.2 mM) | K, partition coefficient between IPM and pH 4.0 acetate buffer [3]: 11.3 | log partition isopropyl myristate / pH 4.0 acetate buffer [4]: 11.3 concentration ratio | Ji, flux of 5-FU through the skin [7]: 0.133 mg/cm^2 hour | Cs, amount of 5-FU in the skin [7]: 2.08 mg | Jj, flux of theophylline through the skin after application of the prodrug/formulation (relative damage) [7]: 0.144 mg/cm^2 hour

CCCCOC(=O)n1cc(F)c(=O)[nH]c1=O [Compound 10]
solubility [1]: 7770 µg/mL (≈ 33.8 mM) | log partition octanol / pH 4.0 acetate buffer (not told): 0.89 log10 concentration ratio | Half-life, 80% Plasma [2, 10]: 3.1 min | K, partition coefficient between IPM and pH 4.0 acetate buffer [3]: 1.46 | log partition isopropyl myristate / pH 4.0 acetate buffer [4]: 1.46 concentration ratio | Cw, solubility at pH 4.0 acetate buffer [5, 10]: 5.9 mg/ml | Half-life, Buffer [6, 10]: 550 min | Ji, flux of 5-FU through the skin [7]: 0.284 mg/cm^2 hour | Cs, amount of 5-FU in the skin [7]: 0.54 mg | Jj, flux of theophylline through the skin after application of the prodrug/formulation (relative damage) [7]: 0.321 mg/cm^2 hour | log K, octanol/pH 4.0 acetate buffer [8, 11]: 0.89

CCCCC(=O)n1cc(F)c(=O)n(C(=O)CCCC)c1=O [Compound 20]
CIPM, equivalent mg of 5FU/ml [1]: 154 equivalent mg of 5FU/ml | solubility [1]: 352000 µg/mL (≈ 1180 mM) | Ji, flux of 5-FU through the skin [7]: 0.124 mg/cm^2 hour | Cs, amount of 5-FU in the skin [7]: 1.14 mg | Jj, flux of theophylline through the skin after application of the prodrug/formulation (relative damage) [7]: 0.156 mg/cm^2 hour

CCC(=O)n1cc(F)c(=O)[nH]c1=O [Compound 2]
solubility [1]: 6770 µg/mL (≈ 36.4 mM) | K, partition coefficient between IPM and pH 4.0 acetate buffer [3]: 0.764 | log partition isopropyl myristate / pH 4.0 acetate buffer [4]: 0.764 concentration ratio | Ji, flux of 5-FU through the skin [7]: 0.560 mg/cm^2 hour | Cs, amount of 5-FU in the skin [7]: 8.96 mg | Jj, flux of theophylline through the skin after application of the prodrug/formulation (relative damage) [7]: 0.219 mg/cm^2 hour

CCCCCC(=O)n1cc(F)c(=O)[nH]c1=O [Compound 5]
solubility [1]: 25700 µg/mL (≈ 113 mM) | K, partition coefficient between IPM and pH 4.0 acetate buffer [3]: 42.9 | log partition isopropyl myristate / pH 4.0 acetate buffer [4]: 42.9 concentration ratio | Cs, amount of 5-FU in the skin [7]: 1.42 mg

CC(=O)n1cc(F)c(=O)[nH]c1=O [Compound 1]
solubility [1]: 3800 µg/mL (≈ 22.1 mM) | K, partition coefficient between IPM and pH 4.0 acetate buffer [3]: 0.185 | log partition isopropyl myristate / pH 4.0 acetate buffer [4]: 0.185 concentration ratio | Ji, flux of 5-FU through the skin [7]: 1.213 mg/cm^2 hour | Cs, amount of 5-FU in the skin [7]: 8.85 mg | Jj, flux of theophylline through the skin after application of the prodrug/formulation (relative damage) [7]: 0.296 mg/cm^2 hour

CCCC(=O)n1c(=O)[nH]cc(F)c1=O [Compound 15]
CIPM, equivalent mg of 5FU/ml [1]: 2.89 equivalent mg of 5FU/ml | solubility [1]: 4440 µg/mL (≈ 22.2 mM) | log partition octanol / pH 4.0 acetate buffer (not told): 0.67 log10 concentration ratio | Half-life, 80% Plasma ([2]; Buur et al (1984)): 28 min | K, partition coefficient between IPM and pH 4.0 acetate buffer [3]: 0.97 | log partition isopropyl myristate / pH 4.0 acetate buffer [4]: 0.97 concentration ratio | Half-life, Buffer ([6]; Buur et al (1984)): 58 min | Jj, flux of theophylline through the skin after application of the prodrug/formulation (relative damage) [7]: 0.204 mg/cm^2 hour | log K, octanol/pH 4.0 acetate buffer [8, 9]: 0.67

CCC(=O)n1cc(F)c(=O)n(C(=O)CC)c1=O [Compound 18]
solubility [1]: 17400 µg/mL (≈ 71.8 mM) | K, partition coefficient between IPM and pH 4.0 acetate buffer [3]: 33.8 | log partition isopropyl myristate / pH 4.0 acetate buffer [4]: 33.8 concentration ratio | Ji, flux of 5-FU through the skin [7]: 0.090 mg/cm^2 hour | Cs, amount of 5-FU in the skin [7]: 0.51 mg | Jj, flux of theophylline through the skin after application of the prodrug/formulation (relative damage) [7]: 0.288 mg/cm^2 hour

CCCC(=O)n1cc(F)c(=O)[nH]c1=O [Compound 3]
solubility [1]: 3480 µg/mL (≈ 17.4 mM) | K, partition coefficient between IPM and pH 4.0 acetate buffer [3]: 2.69 | log partition isopropyl myristate / pH 4.0 acetate buffer [4]: 2.69 concentration ratio | Ji, flux of 5-FU through the skin [7]: 0.168 mg/cm^2 hour | Cs, amount of 5-FU in the skin [7]: 1.07 mg | Jj, flux of theophylline through the skin after application of the prodrug/formulation (relative damage) [7]: 0.185 mg/cm^2 hour

CCCCCCCCOC(=O)n1cc(F)c(=O)[nH]c1=O [Compound 12]
CIPM, equivalent mg of 5FU/ml [1]: 4.72 equivalent mg of 5FU/ml | solubility [1]: 10400 µg/mL (≈ 36.3 mM) | Ji, flux of 5-FU through the skin [7]: 0.037 mg/cm^2 hour | Cs, amount of 5-FU in the skin [7]: 0.41 mg | Jj, flux of theophylline through the skin after application of the prodrug/formulation (relative damage) [7]: 0.323 mg/cm^2 hour

CCCOC(=O)n1cc(F)c(=O)[nH]c1=O [Compound 9]
solubility [1]: 3280 µg/mL (≈ 15.2 mM) | K, partition coefficient between IPM and pH 4.0 acetate buffer [3]: 0.359 | log partition isopropyl myristate / pH 4.0 acetate buffer [4]: 0.359 concentration ratio | Ji, flux of 5-FU through the skin [7]: 0.294 mg/cm^2 hour | Cs, amount of 5-FU in the skin [7]: 0.65 mg | Jj, flux of theophylline through the skin after application of the prodrug/formulation (relative damage) [7]: 0.300 mg/cm^2 hour

CC(=O)n1c(=O)[nH]cc(F)c1=O [Compound 13]
solubility [1]: 74 µg/mL (≈ 0.43 mM) | log partition octanol / pH 4.0 acetate buffer (not told): -0.34 log10 concentration ratio | Half-life, 80% Plasma ([2]; Buur et al (1984)): 4.6 min | K, partition coefficient between IPM and pH 4.0 acetate buffer [3]: 0.040 | log partition isopropyl myristate / pH 4.0 acetate buffer [4]: 0.040 concentration ratio | Cw, solubility at pH 4.0 acetate buffer ([5]; Buur et al (1984)): 42.8 mg/ml | Half-life, Buffer ([6]; Buur et al (1984)): 43 min | Ji, flux of 5-FU through the skin [7]: 0.575 mg/cm^2 hour | Cs, amount of 5-FU in the skin [7]: 1.77 mg | Jj, flux of theophylline through the skin after application of the prodrug/formulation (relative damage) [7]: 0.282 mg/cm^2 hour | log K, octanol/pH 4.0 acetate buffer [8, 9]: -0.34

CC(=O)n1cc(F)c(=O)n(C(C)=O)c1=O [Compound 17]
solubility [1]: 5600 µg/mL (≈ 26.1 mM) | K, partition coefficient between IPM and pH 4.0 acetate buffer [3]: 2.93 | log partition isopropyl myristate / pH 4.0 acetate buffer [4]: 2.93 concentration ratio | Ji, flux of 5-FU through the skin [7]: 0.291 mg/cm^2 hour | Cs, amount of 5-FU in the skin [7]: 1.24 mg | Jj, flux of theophylline through the skin after application of the prodrug/formulation (relative damage) [7]: 0.282 mg/cm^2 hour

CCCC(=O)n1cc(F)c(=O)n(C(=O)CCC)c1=O [Compound 19]
CIPM, equivalent mg of 5FU/ml [1]: 81.4 equivalent mg of 5FU/ml | solubility [1]: 169000 µg/mL (≈ 625 mM) | Ji, flux of 5-FU through the skin [7]: 0.127 mg/cm^2 hour | Cs, amount of 5-FU in the skin [7]: 1.54 mg | Jj, flux of theophylline through the skin after application of the prodrug/formulation (relative damage) [7]: 0.190 mg/cm^2 hour
